Assay results reported in ChEMBL document CHEMBL3430912, “GSK Tres Cantos Anti-Kinetoplastid Screening (TCAKS) Data”.

Columns and labels:
Trypanosoma cruzi [1] = experiment: (§1) GSK_TCAKS: pIC50 Trypanosoma cruzi Imaging: Infected Cells. […] Cells were then washed once with PBS before infection. T. cruzi trypomastigotes, collected at days 5 to 8 after infection from LLC-MK2 parasite infected cultures, were allowed to swim out for 4h at 37C from a centrifuged pellet (2,500 rpm/10 min/room temperature). Trypomastigotes were then collected and counted in a CASY Cell Counter. Trypomastigotes, in supplemented DMEM, were added to H9c2 cultures in a multiplicity of infection of 1 and incubated for 18 h. Cells were washed once with PBS before incubation of the infected H9c2 monolayer with trypsin (Life-Technologies) to detach cells from the flask. Cells were counted in a CASY Cell Counter using a 150 um capillary and their density set at 5 * 10^4 cells per mL in supplemented assay DMEM. Infected H9c2 were dispensed into 384-well poly-lysine coated assay plates at 50uL per well using a Multidrop Combi dispenser. After seeding them, the plates were incubated at 37C, 5% CO2 for 72h. Cultures were then fixed and stained by addition of 50 uL of a solution containing 8% formaldehyde and 4 uM DRAQ5 DNA dye (BioStatus, UK) per well. […] Five images were collected per well for reliable statistical analysis. Automated image analysis was performed with a script developed on Acapella High Content Imaging and Analysis Software (PerkinElmer). Output: percentage of infected cells per well as a second infection marker.; assay type: functional, organism-based, Rattus norvegicus; settings: H9c2, 4 h
Leishmania donovani [2] = experiment: GSK_TCAKS: pIC50 Leishmania donovani Imaging: THP-1 Host Macrophages. Assay plates (384-well) were prepared by adding 250nL of compound to each well. For single shot assay, the final compound concentration was 5 uM. […] Automated image analysis was performed with a script developed on Acapella High Content Imaging and Analysis Software (PerkinElmer). Output: THP-1 cell count were reported for each well.; assay type: functional, organism-based, Homo sapiens
Leishmania donovani [3] = experiment: GSK_TCAKS: pIC50 Leishmania donovani Imaging: Amastigotes/Macrophages. Assay plates (384-well) were prepared by adding 250nL of compound to each well. For single shot assay, the final compound concentration was 5 uM. […] Automated image analysis was performed with a script developed on Acapella High Content Imaging and Analysis Software (PerkinElmer). Output: Average number of amastigotes per macrophage cell were reported for each well.; assay type: functional, organism-based, Homo sapiens; settings: THP-1
NIH3T3 = experiment: GSK_TCAKS: pIC50 NIH 3T3 cell line viability assay using luminiscence. Tissue culture surface treated assay plates (1536-well) were used. […] The 100% cells survival control was determined exposing the host-cells to a 0.5% DMSO concentration, whereas the 100% toxicity control was achieved by seeding the cells in presence of Amphotericin B at 50uM. Plates were incubated for four days at 37C, 5% CO2. The assay readout was developed by addition of 5uL of CellTiter-Glo Reagent following the manufacturer's instructions. Luminiscence was measured using a ViewLux.; assay type: functional, cell-based; settings: Mus musculus, NIH3T3, 96 h
[4] = biological target: Sterol 14-alpha demethylase (Trypanosoma cruzi (strain CL Brener), UniProt Q7Z1V1); experiment: GSK_TCAKS: pIC50 CYP51 from Trypanosoma cruzi.; assay type: functional
Trypanosoma cruzi [5] = experiment: GSK_TCAKS: pIC50 Trypanosoma cruzi viability assay using beta-GAL activity. This assay was run at single shot at 5uM compound concentration per well. The biological reagents consisted of NIH-3T3 host cells and trypomastigotes parasitic cells; both cell types were set to a 3.3 * 10^5 cells/mL dilution in assay DMEM by means of a CASY cell counter device using a 60um capillary. 6 uL of the mixture were dispensed per well (about 1 * 10^3 host-cells and 1 * 10^3 parasites) with a Multidrop Combi dispenser. […] In all wells, the percentage of DMSO never exceeded 0.5%. Plates incubated for four days at 37C, 5% CO2. The substrate used for the assay fluorescence intensity (FLINT) readout was resorufin-beta-D-galactopiranoside (Sigma-Aldrich) at 5uM per well. It was diluted in PBS supplemented with the soft detergent Igepal (Fluka).; assay type: functional, organism-based, Mus musculus; settings: Tulahuen, NIH3T3
Leishmania donovani [6] = experiment: GSK_TCAKS: pIC50 Leishmania donovani viability assay using fluorescence intensity. Assay plates (1536-well) were prepared by adding 30nL per well of compound. For single shot assay, the final compound concentration was 5uM. […] Briefly, eGFP LdBOB axenic amastigotes were harvested, fixed and counted in a CASY cell counter (Roche-Applied Science). A final concentration of 1.5 * 10^5 cells per well were prepared in amastigote media containing 500 U/mL penicillin/streptomycin (Invitrogen) and 6uL was dispensed to each experimental well using a Multidrop Combi dispenser (Thermo Scientific). 6uL of assay media was dispensed to control columns used as reference for 100% compound response. Following incubation for 72 h at 37C, 5% CO2, 2 uL of resazurin was added to each well at a final concentration of 0.5 mM in phosphate buffered saline (PBS) with IGEPAL (Sigma-Aldrich), 0.05% (v/v).; assay type: functional, organism-based
Trypanosoma cruzi [7] = experiment: as §1, with “H2C9” for “Trypanosoma cruzi”, “H9c2 Host Cardiomyocytes.” for “Infected Cells.”, “Number” for “percentage”, “H9c2 Host Cardiomyocytes nuclei to determine drug-related cytotoxicity.” for “infected cells per well as a second infection marker.”; assay type: functional, organism-based, Rattus norvegicus; settings: H9c2, 4 h
Trypanosoma cruzi [8] = experiment: GSK_TCAKS: pIC50 Trypanosoma cruzi Imaging: Amastigotes/Cell. […] Cells were then washed once with PBS before infection. T. cruzi trypomastigotes, collected at days 5 to 8 after infection from LLC-MK2 parasite infected cultures, were allowed to swim out for 4h at 37C from a centrifuged pellet (2,500 rpm/10 min/room temperature). Trypomastigotes were then collected and counted in a CASY Cell Counter. Trypomastigotes, in supplemented DMEM, were added to H9c2 cultures in a multiplicity of infection of 1 and incubated for 18 h. Cells were washed once with PBS before incubation of the infected H9c2 monolayer with trypsin (Life-Technologies) to detach cells from the flask. Cells were counted in a CASY Cell Counter using a 150 um capillary and their density set at 5 * 10^4 cells per mL in supplemented assay DMEM. Infected H9c2 were dispensed into 384-well poly-lysine coated assay plates at 50uL per well using a Multidrop Combi dispenser. After seeding them, the plates were incubated at 37C, 5% CO2 for 72h. Cultures were then fixed and stained by addition of 50 uL of a solution containing 8% formaldehyde and 4 uM DRAQ5 DNA dye (BioStatus, UK) per well. […] Five images were collected per well for reliable statistical analysis. Automated image analysis was performed with a script developed on Acapella High Content Imaging and Analysis Software (PerkinElmer). Output: number of amastigotes per cell as infection level measurement.; assay type: functional, organism-based, Rattus norvegicus; settings: H9c2, 4 h
[9] = system: Trypanosoma brucei brucei; experiment: GSK_TCAKS: pIC50 Trypanosoma brucei viability assay using luminiscence. Assay plates (1536-well) were prepared. T. brucei cultures were harvested and counted in a CASY cell counter. A parasite suspension was prepared at a final concentration of 5 * 10^4 cells/mL in complete HMI9 medium and 6uL was dispensed to all wells containing compounds using a Multidrop Combi dispenser. 6uL of HMI9 media with 0.4% DMSO were dispensed to control columns. Plates were incubated for 24 h at 37C, 5% CO2 then tempered for 10 min at room temperature. ATP content was quantified by adding 4 uL of CellTiter-Glo Reagent (Promega) according to the manufacturer's instructions. Luminescence was measured using a ViewLux.; assay type: functional, organism-based; settings: Lister 427, CASY
Leishmania donovani [10] = experiment: GSK_TCAKS: pIC50 Leishmania donovani Imaging: Infected Macrophages. Assay plates (384-well) were prepared by adding 250nL of compound to each well. For single shot assay, the final compound concentration was 5 uM. […] Automated image analysis was performed with a script developed on Acapella High Content Imaging and Analysis Software (PerkinElmer). Output: Percent of infected macrophage cells were reported for each well.; assay type: functional, organism-based, Homo sapiens; settings: THP-1
[11] = GSK_TCAKS: pIC50 HepG2 human cell line viability assay using luminiscence. […] Seeding density was checked to ensure that new mono-layers were not more than 50% confluent at the time of harvesting. Cell suspension was added to 500 mL of the same medium at a final density of 1.2 * 10^5 cells/mL. This cell suspension was dispensed (25 uL, 3000 cells per well) into 384-well clear-bottom plates using a Multidrop Combi dispenser. Prior to addition of the cell suspension, the screening compounds (250 nL) were pre-dispensed into the plates with an Echo liquid handler. Plates were incubated for 48 h at 37C, 5% CO2. After incubation, plates equilibrated at room temperature for 30 min before proceeding to develop the luminescent signal. The signal developer, CellTiter-Glo Reagent, was allowed to equilibrate at room temperature for 30 min and added to the plates (25uL per well) using a Multidrop Combi dispenser. Plates were left for 10 min at room temperature for stabilization and then read using a ViewLux.; assay type: toxicity, cell-based
[12] = system: Trypanosoma brucei brucei; experiment: GSK_TCAKS: pIC50 Trypanosoma brucei viability assay using fluorescence intensity. Assay plates (1536-well) were prepared by dispensing 25nL of compound solution per well using an Echo acoustic dispenser (Labcyte).; assay type: functional, organism-based; settings: Lister 427, 2 h

Sterol 14-alpha demethylase, sequence (Q7Z1V1 whole entry): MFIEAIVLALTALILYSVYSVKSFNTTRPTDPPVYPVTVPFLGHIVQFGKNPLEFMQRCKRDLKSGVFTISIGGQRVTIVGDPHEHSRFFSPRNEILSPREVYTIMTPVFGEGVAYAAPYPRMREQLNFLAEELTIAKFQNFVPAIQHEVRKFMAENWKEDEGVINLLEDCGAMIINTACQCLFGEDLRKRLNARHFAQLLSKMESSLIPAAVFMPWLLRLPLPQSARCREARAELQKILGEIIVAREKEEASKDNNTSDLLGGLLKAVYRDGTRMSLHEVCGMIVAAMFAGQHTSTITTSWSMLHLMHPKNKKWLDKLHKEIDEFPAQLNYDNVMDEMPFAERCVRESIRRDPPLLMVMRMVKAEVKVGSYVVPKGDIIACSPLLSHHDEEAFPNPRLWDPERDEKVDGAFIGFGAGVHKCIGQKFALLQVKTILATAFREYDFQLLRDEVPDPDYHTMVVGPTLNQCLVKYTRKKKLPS

Compound | IC50 (Trypanosoma cruzi [1]) | IC50 (Leishmania donovani [2]) | IC50 (Leishmania donovani [3]) | IC50 (NIH3T3) | IC50 [4] | IC50 (Trypanosoma cruzi [5]) | IC50 (Leishmania donovani [6]) | IC50 (Trypanosoma cruzi [7]) | IC50 (Trypanosoma cruzi [8]) | IC50 [9] | IC50 (Leishmania donovani [10]) | IC50 at 48 h [11] | IC50 [12]
CC1(Oc2cncc(Cl)c2)CCN(Cc2cc3ccccc3[nH]2)C1 (stereo not given) | 1.58 µM | 31.6 µM | 31.6 µM | 10 µM | 10 µM | 1 µM | > 50.1 µM | 10 µM | 1 µM | > 39.8 µM | 20 µM | 31.6 µM | > 39.8 µM
COc1ccc(NS(=O)(=O)c2cc(NC(=O)c3ccc([N+](=O)[O-])s3)ccc2OC)cc1 | 0.1 µM | 12.6 µM | 0.794 µM | > 50.1 µM | 1 µM | 0.0708 µM | 0.501 µM | > 50.1 µM | 0.0794 µM | 0.126 µM | 0.794 µM | > 100 µM | 0.0501 µM
CC(=O)Nc1ccc(-c2csc(NC(=O)c3ccc([N+](=O)[O-])s3)n2)cc1 | 0.126 µM | 12.6 µM | 0.794 µM | 6.31 µM | 6.31 µM | 0.126 µM | 0.398 µM | 5.01 µM | 0.1 µM | 0.158 µM | 1 µM | 50.1 µM | 0.0251 µM
N#Cc1cccc(CN2CCC(N(Cc3cccnc3)C(=O)c3cc(F)c(F)cc3F)CC2)c1 | 0.398 µM | > 50.1 µM | 12.6 µM | 20 µM | 0.0501 µM | 0.398 µM | > 50.1 µM | > 50.1 µM | 0.316 µM | > 39.8 µM | > 50.1 µM | > 100 µM | > 39.8 µM
N#Cc1cccc(CN2CCC(c3nc(-c4ccc(C(F)(F)F)nc4)no3)CC2)c1 | 2 µM | > 50.1 µM | > 50.1 µM | > 50.1 µM | > 100 µM | 2 µM | 12.6 µM | > 50.1 µM | 2.51 µM | > 39.8 µM | > 50.1 µM | > 100 µM | > 39.8 µM
COc1ccc(-c2nc3ccncc3c(=O)n2CCOc2ccccc2)cc1 | 0.398 µM | > 50.1 µM | > 50.1 µM | 31.6 µM | 0.0398 µM | 0.631 µM | 39.8 µM | > 50.1 µM | 0.398 µM | 31.6 µM | > 50.1 µM | > 100 µM | 25.1 µM
Cc1cccc(N2CCCN(Cc3c[nH]c4ccccc34)CC2)n1 | 0.398 µM | 10 µM | 10 µM | 25.1 µM | > 100 µM | 0.316 µM | > 50.1 µM | 2.51 µM | 0.316 µM | 12.6 µM | 10 µM | 12.6 µM | 12.6 µM
O=C(CCCn1cnc([N+](=O)[O-])n1)Nc1cccc(Cl)c1 | 0.501 µM | > 50.1 µM | > 50.1 µM | > 50.1 µM | 50.1 µM | 0.2 µM | > 50.1 µM | > 50.1 µM | 0.158 µM | > 39.8 µM | > 50.1 µM | > 100 µM | 5.01 µM
CC1=C(C(=O)Nc2ccc(Cl)cc2)C(c2ccncc2)n2ncc(C(=O)Nc3ccccc3)c2N1 (stereo not given) | 0.02 µM | 12.6 µM | > 50.1 µM | 31.6 µM | 0.126 µM | 0.02 µM | 0.126 µM | > 50.1 µM | 0.02 µM | > 39.8 µM | > 50.1 µM | 79.4 µM | 3.16 µM
O=C(NCCc1cccnc1)c1ccc(-c2ccccc2F)o1 | 0.2 µM | > 50.1 µM | > 50.1 µM | 39.8 µM | 0.0631 µM | 0.112 µM | 20 µM | > 50.1 µM | 0.2 µM | > 39.8 µM | > 50.1 µM | > 100 µM | 31.6 µM
